Data reported in patent publication US20090203577A1 (EXELIXIS, INC., priority 2005, published 2009).

Target: T1, human farnesoid X receptor (Homo sapiens, UniProt Q96RI1)
T1 construct: CMX-farnesoid X receptor (full length human farnesoid X receptor); expressed in transfected cells; host or cells: CV-1 African Green Monkey Kidney cells
T1 sequence (Q96RI1 1-472 isoform Q96RI1-2): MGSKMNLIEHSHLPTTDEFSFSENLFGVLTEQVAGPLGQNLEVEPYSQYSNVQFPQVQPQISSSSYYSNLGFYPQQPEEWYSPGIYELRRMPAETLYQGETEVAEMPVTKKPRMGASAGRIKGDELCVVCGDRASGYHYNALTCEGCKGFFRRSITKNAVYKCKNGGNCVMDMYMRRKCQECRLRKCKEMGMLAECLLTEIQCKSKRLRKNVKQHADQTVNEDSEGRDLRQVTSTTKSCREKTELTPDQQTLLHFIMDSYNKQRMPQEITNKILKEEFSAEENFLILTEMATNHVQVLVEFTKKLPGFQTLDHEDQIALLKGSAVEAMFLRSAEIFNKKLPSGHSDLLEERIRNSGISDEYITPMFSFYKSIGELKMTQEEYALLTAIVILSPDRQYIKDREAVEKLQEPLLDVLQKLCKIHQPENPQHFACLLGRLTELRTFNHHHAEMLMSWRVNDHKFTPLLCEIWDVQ
T1 sequence (P19793 1-462 partner): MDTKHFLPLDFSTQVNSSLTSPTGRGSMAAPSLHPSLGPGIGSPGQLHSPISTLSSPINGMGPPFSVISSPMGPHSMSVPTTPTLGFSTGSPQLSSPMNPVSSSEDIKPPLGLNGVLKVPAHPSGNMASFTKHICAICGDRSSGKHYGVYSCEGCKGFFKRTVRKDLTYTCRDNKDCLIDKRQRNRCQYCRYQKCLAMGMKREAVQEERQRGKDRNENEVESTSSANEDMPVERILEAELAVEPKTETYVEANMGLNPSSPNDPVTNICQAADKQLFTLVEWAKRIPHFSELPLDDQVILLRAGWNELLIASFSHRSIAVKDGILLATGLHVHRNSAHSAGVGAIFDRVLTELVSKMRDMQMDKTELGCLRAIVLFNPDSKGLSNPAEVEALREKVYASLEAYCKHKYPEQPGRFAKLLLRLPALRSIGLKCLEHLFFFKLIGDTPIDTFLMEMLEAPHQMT
Test: FXR in vitro assays (farnesoid X receptor/ECREx7 co-transfection assay, TR-FRET assay), Table I
Assay type: cell-based
Conditions: for EC50: agonist activity, one or more of the in vitro assays, read-out: EC50; for Emax: read-out: % Efficacy
Description: The basic co-transfection protocol for measuring the farnesoid X receptor activity is as follows. CV-1 African Green Monkey Kidney cells were plated 24 hours before transfection to achieve approximately 70-80 percent confluency. […] The assay was allowed to continue for an additional 18-20 hours, after which the cells were lysed, with lysis buffer (1% triton X 100, 10% glycerol, 5 mM Dithiothreitol, 1 mM EGTA, 25 mM Tricine, pH 7.8) and the luciferase activity measured in the presence of Luciferase assay buffer (0.73 mM ATP, 22.3 mm Tricine, 0.11 mM EGTA, 0.55 mM Luciferin, 0.15 mM Coenzyme A, 0.5 mM HEPES, 10 mM Magnesium sulphatc) on a standard luminometer plate reader (PE Biosystems, NorthStar Reader), using recommended operating instructions and conditions.
The dose response curves are generated from an 8 point curve with concentrations differing by ½ LOG units. Each point represents the average of 4 wells of data from a 384 well plate. A curve for the data is generated by using the equation:
Y=Bottom+(Top−Bottom)/(1+10̂((Log EC50−X)*HillSlope))
The EC50/IC50 is therefore defined as the concentration at which an agonist or antagonist elicits a response that is half way between the Top (maximum) and Bottom (baseline) values. The EC50/IC50 values represented are the averages of at least 3 independent experiments.

Compound | EC50 [µM] | Emax [%]
CC(C)OC(=O)C1=CN(C(=O)C2CCCCC2)CC(C)(C)c2c1[nH]c1ccccc21 [Example 1, 1-Methylethyl 1,1-Dimethyl-1,2,3,6-Tetrahydroazepino [4,5-b]Indole-5-CarboxylateE] | 0.01 to 0.1 | > 100
CC(C)OC(=O)C1=CN(C(=O)C2CCCCCC2)CC(C)(C)c2c1[nH]c1ccccc21 [Example 12, 1-Methylethyl 3-[(3,4-Difluorophenyl)Carbonyl]-8-[(f{[2-(Dimethylamino)Ethyl]amino}Carbonyl)Oxy]-1,1-Dimethyl-1,2,3,6-tetrahydroazepino[4,5-b]Indole-5-Carboxylate] | 0.01 to 0.1 | > 100
CC(C)OC(=O)C1=CN(C(=O)CCCN(C)C)CC(C)(C)c2c1[nH]c1ccccc21 [Example 20] | 1 to 10 | 
CC(=O)C1=CNCC(C)(C)c2c1[nH]c1ccccc21 [Example 21] | 1 to 10 | 
CC(C)OC(=O)C1=CN(C(=O)NCCN2CCOCC2)CC(C)(C)c2c1[nH]c1ccccc21 [Example 22, 1-methylethyl 1,1-dimethyl-3-{[(2-morpholin-4-ylethyl)amino]carbonyl}-1,2,3,6-tetrahydroazepino[4,5-b]indole-5-carboxylate] | 1 to 10 | 
CC(C)OC(=O)C1=CN(C(=O)C23C[C@H]4C[C@@H](C2)C[C@@H](C3)C4)CC(C)(C)c2c1[nH]c1ccccc21 [Example 24, 1-methylethyl 1,1-dimethyl-3-[(3s,5s,7s)-tricyclo[3.3.1.1~3,7~]dec-1-ylcarbonyl]-1,2,3,6-tetrahydroazepino [4,5-b]indole-5-carboxylate] | 0.01 to 0.1 | > 100
CCN(CC)CCN(CC)C(=O)N1C=C(C(=O)OC(C)C)c2[nH]c3ccccc3c2C(C)(C)C1 [Example 27, 1-methylethyl 3-({[2-(diethylamino)ethyl](ethyl)amino}carbonyl)-1,1-dimethyl-1,2,3,6-tetrahydro azepino [4,5-b]indole-5-carboxylate] | 1 to 10 | 
CC(C)OC(=O)C1=CN(C(=O)N2CCN(C)CC2)CC(C)(C)c2c1[nH]c1ccc(F)cc21 [Example 32, 1-methylethyl 9-fluoro-1,1-dimethyl-3-[(4-methylpiperazin-1-yl)carbonyl]-1,2,3,6-tetrahydroazepino[4,5-b]indole-5-carboxylate] | 0.1 to 1 | > 100
CC(C)OC(=O)C1=CN(C(=O)N2CCCCCC2)CC(C)(C)c2c1[nH]c1ccccc21 [Example 40, 1-methylethyl 3-(azepan-1-ylcarbonyl)-1,1-dimethyl-1,2,3,6-tetrahydroazepino [4,5-b]indole-5-carboxylate] | 0.001 to 0.01 | > 100
CC(C)OC(=O)C1=CN(C(=O)NC2CCCC2)CC(C)(C)c2c1[nH]c1ccccc21 [Example 44, 1-methylethyl 3-[(cyclopentylamino)carbonyl]-1,1-dimethyl-1,2,3,6-tetrahydroazepino[4,5-b]indole-5-carboxylate] | 0.01 to 0.1 | > 100
CC(C)OC(=O)C1=CN(C(=O)NC2CCCCCC2)CC(C)(C)c2c1[nH]c1ccccc21 [Example 46, 1-methylethyl 3-[(cycloheptylamino)carbonyl]-1,1-dimethyl-1,2,3,6-tetrahydroazepino[4,5-b]indole-5-carboxylate] | 0.01 to 0.1 | > 100
CC(C)OC(=O)C1=CN(C(=O)NCc2ccccc2)CC(C)(C)c2c1[nH]c1ccccc21 [Example 49, 1-methylethyl 1,1-dimethyl-3-{[(phenylmethyl)amino]carbonyl}-1,2,3,6-tetrahydroazepino[4,5-b]indole-5-carboxylate] | 1 to 10 | 80 to 100
CCN(CC)C(=O)N1C=C(C(=O)OC(C)C)c2[nH]c3ccccc3c2C(C)(C)C1 [Example 52, 1-methylethyl 3-[(diethylamino)carbonyl]-1,1-dimethyl-1,2,3,6-tetrahydroazepino[4,5-b]indole-5-carboxylate] | 0.01 to 0.1 | > 100
CC(C)OC(=O)C1=CN(C(=O)N2CCCC(COCCCN(C)C)C2)CC(C)(C)c2c1[nH]c1ccccc21 (stereo not shown) [Example 55, 1-methylethyl 3-{[3-({[3-(dimethylamino)propyl]oxy}methyl)piperidin-1-yl]carbonyl}-1,1-dimethyl-1,2,3,6-tetrahydroazepino[4,5-b]indole-5-carboxylate] | 1 to 10 | 
CC(C)OC(=O)C1=CN(C(=O)N2CCCN(Cc3ccccc3)CC2)CC(C)(C)c2c1[nH]c1ccccc21 [Example 59, 1-methylethyl 1,1-dimethyl-3-{[4-(phenylmethyl)-1,4-diazepan-1-yl]carbonyl}-1,2,3,6-tetrahydroazepino [4,5-b]indole-5-carboxylate] | 0.01 to 0.1 | > 100
CC(C)OC(=O)C1=CN(C(=O)c2c(F)ccc(F)c2Cl)CC(C)(C)c2c1[nH]c1ccccc21 [Example 61, 1-methylethyl 3-[(2-chloro-3,6-difluorophenyl)carbonyl]-1,1-dimethyl-1,2,3,6-tetrahydroazepino[4,5-b]indole-5-carboxylate] | 0.01 to 0.1 | > 100
CC(C)OC(=O)C1=CN(C(=O)c2ccccc2)CC(C)(C)c2c1[nH]c1ccccc21 [Example 62, 1-methylethyl 1,1-dimethyl-3-(phenylcarbonyl)-1,2,3,6-tetrahydroazepino[4,5-b]indole-5-carboxylate] | 0.001 to 0.01 | > 100
CC(C)OC(=O)C1=CN(C(=O)c2ccccc2F)CC(C)(C)c2c1[nH]c1ccccc21 [Example 63, 1-methylethyl 3-[(2-fluorophenyl)carbonyl]-1,1-dimethyl-1,2,3,6-tetrahydroazepino[4,5-b]indole-5-carboxylate] | 0.01 to 0.1 | > 100
CC(C)OC(=O)C1=CN(C(=O)c2ccccc2Cl)CC(C)(C)c2c1[nH]c1ccccc21 [Example 66, 1-methylethyl 3-[(2-chlorophenyl)carbonyl]-1,1-dimethyl-1,2,3,6-tetrahydroazepino[4,5-b]indole-5-carboxylate] | 0.001 to 0.01 | > 100
Cc1ccccc1C(=O)N1C=C(C(=O)OC(C)C)c2[nH]c3ccccc3c2C(C)(C)C1 [Example 68, 1-methylethyl 1,1-dimethyl-3-[(2-methylphenyl)carbonyl]-1,2,3,6-tetrahydroazepino[4,5-b]indole-5-carboxylate] | 0.01 to 0.1 | > 100
COc1ccccc1C(=O)N1C=C(C(=O)OC(C)C)c2[nH]c3ccccc3c2C(C)(C)C1 [Example 69, 1-methylethyl 1,1-dimethyl-3-{[2-(methyloxy)phenyl]carbonyl}-1,2,3,6-tetrahydroazepino[4,5-b]indole-5-carboxylate] | 0.01 to 0.1 | > 100
CC(C)OC(=O)C1=CN(C(=O)c2ccc(F)cc2F)CC(C)(C)c2c1[nH]c1ccccc21 [Example 73, 1-methylethyl 3-[(2,4-difluorophenyl)carbonyl]-1,1-dimethyl-1,2,3,6-tetrahydroazepino[4,5-b]indole-5-carboxylate] | 0.001 to 0.01 | > 100
CC(C)OC(=O)C1=CN(C(=O)c2cccc(F)c2F)CC(C)(C)c2c1[nH]c1ccccc21 [Example 74, 1-methylethyl 3-[(2,3-difluorophenyl)carbonyl]-1,1-dimethyl-1,2,3,6-tetrahydroazepino[4,5-b]indole-5-carboxylate] | 0.001 to 0.01 | > 100
CC(C)OC(=O)C1=CN(C(=O)c2c(F)cccc2F)CC(C)(C)c2c1[nH]c1ccccc21 [Example 75, 1-methylethyl 3-[(2,6-difluorophenyl)carbonyl]-1,1-dimethyl-1,2,3,6-tetrahydroazepino[4,5-b]indole-5-carboxylate] | 0.001 to 0.01 | > 100
